Results from patent US20250092065A1, “2-(INDAZOL-5-YL)-6-(PIPERIDIN-4-YL)-1,7-NAPHTHYRIDINE DERIVATIVES AND RELATED COMPOUNDS AS MODULATORS FOR SPLICING NUCLEIC ACIDS AND FOR THE TREATMENT OF PROLIFERATIVE DISEASES” (REMIX THERAPEUTICS INC., priority 2022, published 2025).
pIC50: −log10 of the molar value. Read-outs that look alike come from different tables or passages of the source.

What was measured:
[1] = system: MYB mRNA; assay: RT-qPCR splicing assay, MYB mRNA canonical (CJ) and alternative (AJ) junction; assay type: cell-based, human; details: Homo sapiens; for AC50: MYB alternative junction mRNA, read-out: MYB AJ (increase in AJ mRNA, AC50)
Method in brief: (§1)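 Splice switching quantified in compound-treated A673/K562 cells after 24 h exposure (top dose 10 uM, 3-fold steps, ≤0.25% DMSO), using CJ and AJ qPCR assays run at least in duplicate. RQ derived by 2^(−ΔΔCt), then percentage response.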

[2] = system: K562 cells; assay: Cell Titer Glo 2.0 cell viability (toxicity) assay, K562; details: 500 cells/well, 72 hours
[3] = system: HTT; assay: HiBiT protein abundance assay, HTT (K562 HiBiT knock-in); assay type: cell-based, human; details: HiBiT knock-in K562 cells, 24 hours, top dose 10 μM
Description: (§2) Compounds described herein were used to screen for effects on quantitative protein abundance using a HiBit assay system (Promega). Quantitative protein abundance was determined by measuring the protein levels of HiBit-tagged protein targets expressed in cell culture via luminescence using the Nano-Glo HiBiT Lytic Detection System, which uses a split complementation assay format to reconstitute NanoBiT enzyme to generate a luminescent signal. A protein abundance assay was developed such that endogenous protein targets could be modified with the HiBiT peptide tag and their abundance could be assessed after compound treatment. Briefly, K562 cell lines containing a HiBiT-modification were treated with various compounds described herein (e.g., compounds of Formulas (I), or (II)). After treatment for 24 hours, the protein abundance of a specific target was determined by measuring luminescence.
(§3) Cells were maintained in IMIDM with 10% FBS. Before the assay, cells were diluted with […] growth media (IMIDM+[…] media) and were seeded in a 384-well plate at a density of 10000 cells/well (for each cell line listed in Table 6). Each compound was prepared as a 10-point 3-fold serial dilution in DMSO with the top dose at a final concentration of 10 μM in the well. Unmodified K562 cells were added at the previously specified density with DMSO to serve as an assay baseline and positive control (PC) and DMSO only with the respective modified cell lines was added to the negative control (NC) columns. Final DMSO concentration was kept at or below 0.25%. Treated cell plates were placed in an incubator at 37° C. with […] for 24 hours. After 24 hours, 25 μL of Complete HiBit Lytic reagent was added to each well at room temperature (e.g. one plate requiring 10 mL Lytic Buffer, 100 μL LgBiT Protein, 200 μL Lytic Substrate), shaken for 5 minutes at 600 RPM, then left to sit for 10 minutes for signal to stabilize before reading on a Spark Cyto plate reader (Tecan) with a 500 ms measurement time.
(§4) To determine compound effects on protein abundance of each target in Table 6, the percent response for each respective cell line was calculated at each compound concentration as follows:
(§5) % response=100*(S−PC)(NC−PC)
(§6) For the normalized response at each concentration, a four-parameter logistical regression was fit to the data and the response was interpolated at the […] to determine a concentration for protein abundance at 50% (IC50) the untreated control.

[4] = system: HTT mRNA; assay: RT-qPCR splicing assay, HTT mRNA canonical (CJ) and alternative (AJ) junction; assay type: cell-based, human; details: Homo sapiens; for AC50: HTT alternative junction mRNA, read-out: HTT AJ (increase in AJ mRNA, AC50)
Method in brief: as §1

[5] = system: MYB; assay: HiBiT protein abundance assay, MYB (K562 HiBiT knock-in); assay type: cell-based, human; details: HiBiT knock-in K562 cells, 24 hours, top dose 10 μM
Description: as §2, §3, §4, §5, §6

[6] = system: SMN2 mRNA; assay: RT-qPCR splicing assay, SMN2 mRNA; assay type: cell-based, human; details: Homo sapiens, canonical junction qPCR panel, Table 4; read-out: SMN2 IC50 (decrease in CJ mRNA levels)
Method in brief: as §1

[7] = system: Target C; assay: HiBiT protein abundance assay, Target C (K562 HiBiT knock-in); assay type: cell-based, human; details: HiBiT knock-in K562 cells, 24 hours, top dose 10 μM
Description: as §3, §4, §5, §6

[8] = MYB canonical junction mRNA, RT-qPCR, read-out: MYB CJ (decrease in CJ mRNA levels, IC50)
[9] = canonical junction qPCR panel, Table 4, read-out: MYB IC50 (decrease in CJ mRNA levels)
[10] = HTT canonical junction mRNA, RT-qPCR, read-out: HTT CJ (decrease in CJ mRNA levels, IC50)
[11] = canonical junction qPCR panel, Table 4, read-out: HTT IC50 (decrease in CJ mRNA levels)

Compound	pIC50 [1, 8]	pIC50 [1, 9]	pIC50 [3]	pIC50 [4, 10]	pIC50 [4, 11]	pIC50 [5]	pIC50 [6]	pIC50 [7]	AC50 ([1]; RT-qPCR) [nM]	Effect of Exemplary Compounds on Cell Viability, K562 [2]	AC50 ([4]; RT-qPCR) [nM]
Cn1cc2cc(-c3ccc4nc(N5CCNC(C)(C)C5)ccc4n3)c(O)cc2n1 [Compound 120]	6.00 to 7.00	6.00 to 7.00	5.00 to 6.00	5.00 to 6.00	5.00 to 6.00	5.00 to 6.00	> 7.00	5.00 to 6.00	100 to 1000	B (B represents 100-1000 nM)	1000 to 10000
Cn1cc2cc(-c3ccc4nc(N5CCNC6(CC6)C5)ccc4n3)c(O)cc2n1 [Compound 121]	6.00 to 7.00	6.00 to 7.00	5.00 to 6.00	5.00 to 6.00	5.00 to 6.00	5.00 to 6.00	5.00 to 6.00	5.00 to 6.00	100 to 1000	C (C represents 1000-9999 nM)	1000 to 10000
Cn1cc2cc(-c3ccc4nc(N5CC6(CNC6)C5)ccc4n3)c(O)cc2n1 [Compound 124]	6.00 to 7.00	6.00 to 7.00	> 7.00	> 7.00	> 7.00	6.00 to 7.00	> 7.00	> 7.00	100 to 1000	B (B represents 100-1000 nM)	100 to 1000
Cn1cc2cc(-c3ccc4nc(N5CCC(N6CCCC6)C5)ccc4n3)c(O)cc2n1 (stereo not shown) [Compound 125]	6.00 to 7.00	6.00 to 7.00	6.00 to 7.00	6.00 to 7.00	6.00 to 7.00	6.00 to 7.00	> 7.00	6.00 to 7.00	< 100	B (B represents 100-1000 nM)	100 to 1000

Now from value to compound, other results behind:

pIC50 [1, 8]	pIC50 [1, 9]	pIC50 [3]	pIC50 [4, 10]	pIC50 [4, 11]	pIC50 [5]	pIC50 [6]	pIC50 [7]	Compound	AC50 ([1]; RT-qPCR) [nM]	Effect of Exemplary Compounds on Cell Viability, K562 [2]	AC50 ([4]; RT-qPCR) [nM]
> 7.00	> 7.00	> 7.00	> 7.00	> 7.00	> 7.00	> 7.00	> 7.00	Cn1cc2cc(-c3ccc4nc(N5CCC(NC(C)(C)C)C5)ccc4n3)c(O)cc2n1 (stereo not shown) [Compound 127]	< 100	B (B represents 100-1000 nM)	< 100
6.00 to 7.00	6.00 to 7.00	6.00 to 7.00	6.00 to 7.00	6.00 to 7.00	6.00 to 7.00	> 7.00	6.00 to 7.00	CN(C)C1CCN(c2ccc3nc(-c4cc5cn(C)nc5cc4O)ccc3n2)C1 (stereo not shown) [Compound 129]	100 to 1000	B (B represents 100-1000 nM)	100 to 1000
5.00 to 6.00	5.00 to 6.00	5.00 to 6.00	5.00 to 6.00	5.00 to 6.00	5.00 to 6.00	> 7.00	5.00 to 6.00	CCNC1CCN(c2ccc3nc(-c4cc5cn(C)nc5cc4O)ccc3n2)CC1 [Compound 131]	1000 to 10000	B (B represents 100-1000 nM)	> 10000
< 5.00	< 5.00	< 5.00	< 5.00	< 5.00	< 5.00	< 5.00	< 5.00	Cn1cc2cc(-c3ccc4nc(N5CCC(NC(C)(C)C)CC5)ccc4n3)c(O)cc2n1 [Compound 132]	> 10000	C (C represents 1000-9999 nM)	> 10000
